Activity calls are given as the source filed them. The rule behind the calls is not given here.
Legend:
Cannabinoid receptor 1 [1] = target: T1, Cannabinoid receptor 1 (Homo sapiens, UniProt P21554); experiment: Agonist activity at human recombinant cannabinoid CB1 receptor expressed in MMY23 Saccharomyces cerevisiae assessed as degradation of FDGlu to fluorescein after 24 hrs by spectrofluorimetry; format: functional
Cannabinoid receptor 2 [2] = target: T2, Cannabinoid receptor 2 (Homo sapiens, UniProt P34972); experiment: Agonist activity at human recombinant cannabinoid CB2 receptor expressed in MMY23 Saccharomyces cerevisiae assessed as degradation of FDGlu to fluorescein after 24 hrs by spectrofluorimetry relative to HU210; format: functional
T2 sequence (P34972 whole entry): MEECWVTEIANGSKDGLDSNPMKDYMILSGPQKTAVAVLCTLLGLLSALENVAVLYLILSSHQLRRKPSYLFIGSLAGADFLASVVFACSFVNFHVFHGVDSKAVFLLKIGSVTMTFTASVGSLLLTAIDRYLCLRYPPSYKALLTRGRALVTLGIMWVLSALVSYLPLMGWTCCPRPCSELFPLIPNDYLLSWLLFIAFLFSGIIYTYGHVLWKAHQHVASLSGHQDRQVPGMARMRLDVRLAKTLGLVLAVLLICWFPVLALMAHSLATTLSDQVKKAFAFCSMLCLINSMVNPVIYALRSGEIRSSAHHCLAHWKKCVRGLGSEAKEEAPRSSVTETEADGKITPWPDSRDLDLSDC

Cannabinoid receptor 2 [3] = target: T2, Cannabinoid receptor 2; experiment: Agonist activity at human recombinant cannabinoid CB2 receptor expressed in MMY23 Saccharomyces cerevisiae assessed as degradation of FDGlu to fluorescein after 24 hrs by spectrofluorimetry; format: functional
Cannabinoid receptor 1 [4] = target: T1, Cannabinoid receptor 1; experiment: Agonist activity at human recombinant cannabinoid CB1 receptor expressed in MMY23 Saccharomyces cerevisiae assessed as degradation of FDGlu to fluorescein at 30 uM after 24 hrs by spectrofluorimetry; format: functional
Homo sapiens = organism: Homo sapiens; experiment: Selectivity ratio of EC50 for human recombinant cannabinoid CB1 receptor to EC50 for human recombinant cannabinoid CB2 receptor
Cannabinoid receptor 1 [5] = target: T1, Cannabinoid receptor 1; experiment: Agonist activity at human recombinant cannabinoid CB1 receptor expressed in MMY23 Saccharomyces cerevisiae assessed as degradation of FDGlu to fluorescein after 24 hrs by spectrofluorimetry relative to HU210; format: functional

T1 sequence (P21554 whole entry): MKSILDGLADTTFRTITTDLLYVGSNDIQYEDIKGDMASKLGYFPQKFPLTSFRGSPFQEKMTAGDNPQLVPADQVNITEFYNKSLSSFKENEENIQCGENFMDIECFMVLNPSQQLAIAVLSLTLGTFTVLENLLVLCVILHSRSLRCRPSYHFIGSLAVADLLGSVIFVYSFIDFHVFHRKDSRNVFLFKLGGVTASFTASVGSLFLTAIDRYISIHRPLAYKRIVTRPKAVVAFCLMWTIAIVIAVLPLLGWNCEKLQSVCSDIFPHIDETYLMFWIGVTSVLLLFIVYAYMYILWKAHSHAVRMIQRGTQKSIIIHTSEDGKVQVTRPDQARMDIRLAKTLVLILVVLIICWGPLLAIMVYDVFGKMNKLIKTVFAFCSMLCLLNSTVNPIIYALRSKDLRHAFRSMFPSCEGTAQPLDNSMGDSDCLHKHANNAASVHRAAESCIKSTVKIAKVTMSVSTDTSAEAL

Compound | EC50 (Cannabinoid receptor 1 [1]) | Efficacy (Cannabinoid receptor 2 [2]) | EC50 (Cannabinoid receptor 2 [3]) | Activity (Cannabinoid receptor 1 [4]) | Ratio EC50 (Homo sapiens) | Efficacy (Cannabinoid receptor 1 [5])
Cc1c[nH]c2c(Nc3cccc(Cl)c3)ncc(C(=O)NC3CCOCC3)c12 | > 30000 nM | 79% | 1700 nM |  |  | 
CCC(CC)Nc1ncc(C(=O)N2CCOCC2)c2c(C)c[nH]c12 | > 30000 nM | 59% | 4670 nM |  |  | 
Cc1c[nH]c2c(Nc3cccc(C(F)(F)F)c3)ncc(C(=O)N3CCOCC3)c12 | > 30000 nM | 86% | 15 nM | inactive | > 100 | 
Cc1c[nH]c2c(Nc3cccc(Br)c3)ncc(C(=O)N3CCOCC3)c12 | 6300 nM | 78% | 10 nM |  |  | 43%
CCCCCCC(C)(C)c1cc(O)c2c(c1)OC(C)(C)[C@@H]1CC=C(CO)C[C@@H]21 | 40 nM |  |  |  |  | 
Cc1cn(C)c2c(Nc3cccc(Cl)c3)ncc(C(=O)N3CCOCC3)c12 | 10000 nM | 47% | 654 nM |  |  | 45%
Cc1c[nH]c2c(Nc3ccccc3OC(C)C)ncc(C(=O)N3CCOCC3)c12 | > 30000 nM | 73% | 188 nM | inactive | > 100 | 
Cc1c[nH]c2c(Nc3cccc(Cl)c3)ncc(C(=O)N3CCCCC3)c12 | 4000 nM | 73% | 14 nM |  |  | 32%
Cc1c[nH]c2c(Nc3cccc(Cl)c3)ncc(C(=O)N3CCC3)c12 | > 30000 nM | 66% | 504 nM |  |  | 
Cc1c[nH]c2c(Nc3cccc(Cl)c3)ncc(C(=O)N3CCCC3)c12 | > 30000 nM | 68% | 153 nM |  |  | 

Reference: ChEMBL document CHEMBL1156052, “Discovery of 1-[4-(3-chlorophenylamino)-1-methyl-1H-pyrrolo[3,2-c]pyridin-7-yl]-1-morpholin-4-ylmethanone (GSK554418A), a brain penetrant 5-azaindole CB2 agonist for the treatment of chronic pain” (J Med Chem, 2009)
